Laboratory results from paper PMC10223284, “Category-Based Toxicokinetic Evaluations of Data-Poor Per- and Polyfluoroalkyl Substances (PFAS) using Gas Chromatography Coupled with Mass Spectrometry” (Toxics, 2023).
Values joined by “and” are separate entries in the source; they are usually repeats but may differ in a detail not shown here. Equal values may be shown once.

Experiments:
[1] = Abiotic loss in negative controls of the hepatocyte clearance assay (cell-free media, metabolically inactivated hepatocytes); type: in vitro ADME; details: flag for stability failure in hepatocyte clearance assay controls (1 or Fst = fail, 0 = pass)
Experimental: The hepatic metabolic stability assay measures the loss of a parent compound over time in a substrate-depletion approach. Briefly, hepatocyte suspensions, after a viability assessment, were diluted in complete William’s medium E (containing dexamethasone and cell maintenance cocktail B) prior to addition to 96-well polypropylene plates containing an equal volume of media spiked with the test compound (1 μM assay concentration; assay cell density = 50,000 cells/100 μL) and maintained at 37 °C with shaking. At each time point, relevant plates were crashed with an equal volume of ice-cold acetonitrile, centrifuged, and supernatant transferred to a new plate prior to storage at <−70 °C until quantitative analysis. Controls, run in parallel, included cell-free (i.e., media only) and metabolically inactivated hepatocytes to evaluate abiotic chemical stability in the aqueous media matrix with and without cellular protein. In preliminary runs, these controls were run at T0 and T240 only. If significant instability was noted, the hepatocyte clearance assay was rerun, including cell-free samples at each time point and metabolically inactivated hepatocytes at selected time points.
Negative controls, including media only and metabolically inactivated hepatocyte controls, were included to monitor abiotic loss (i.e., background clearance) during the assay. Where significant compound loss occurred using the analysis described above, background clearance rates were calculated and used to background-adjust hepatic metabolic clearance rates. Where chemicals were cleared prior to the end of the analysis, at 240 min (T240), the corresponding negative control timepoint was used for background subtraction. Any chemicals displaying a 50% or more abiotic loss at T120 were deemed unstable and were excluded from further analyses.

in vitro = details: both, human, plasma
human plasma [2] = experiment: Chemical stability in plasma over the UC assay time course (T5hr/T1hr); details: for PPB_Stab_Fail: flag for stability failure in the plasma protein binding assay (1 = fail, 0 = pass); for Fstable.Med: median fraction stable in plasma, UC assay Level4; for Stability (T5hr/ T1hr), replicates A, B, C: single replicate of one UC run; for % remaining_PPB: chemical remaining in plasma over the PPB assay time course, NS = no significant loss; for Time 1 hr / Time 1 hr, Run-specific Avg: amount measured in plasma sample at 1 hr; for Time 1 hr / Time 5 hr: replicates A, B, C; for Time 1 hr / Time 1 hr, Run-specific Avg / Time 5 hr / Time 5 hr, Run-specific Avg: unit not given; for Time 1 hr, Run-specific Avg / Time 5 hr, Run-specific Avg: run average; for Time 5 hr / Time 5 hr, Run-specific Avg: amount measured in plasma sample at 5 hr
human plasma [3] = experiment: Ultracentrifugation (UC) plasma protein binding assay, fraction unbound in plasma (fup); details: for Fup.Med: median fraction unbound in plasma; for Fup.Med / Fup.point: UC assay Level4; for Fup.point: point estimate of fraction unbound in plasma; for Fraction Unbound (fu), replicates A, B, C: single replicate of one UC run (aqueous fraction / Time 5 hr); for Aqueous Fraction / Aqueous Fraction, Run-specific Avg: amount measured in aqueous fraction after ultracentrifugation, unit not given; for Aqueous Fraction: replicates A, B, C; for Aqueous Fraction, Run-specific Avg: run average; for Mean fu: fraction unbound in human plasma, some values based on eLOQ
[4] = Fraction Unbound (fu), replicates A, B, C, single replicate of one UC run (aqueous fraction / Time 5 hr)
[5] = Mean Fu, mean fraction unbound over all replicates and runs, UC assay, human plasma
[6] = Mean fu, fraction unbound in human plasma, ultracentrifugation, some values based on eLOQ
[7] = average of one UC run (run date in line above)
[8] = mean T5hr/T1hr ratio over all replicates and runs, plasma
[9] = Fraction Unbound (fu), Run-specific Avg, average of one UC run (run date in line above)
[10] = Fraction Unbound (fu), Run-specific Avg, average of one UC run
[11] = Fraction Unbound (fu), individual replicates A, B, C of the UC run named in c8
[12] = Mean Fu, mean fraction unbound in human plasma over all UC replicates/runs
[13] = mean T5hr/T1hr ratio in plasma over all replicates/runs
[14] = mean over all UC runs and replicates, human plasma

SMILES: OCCCC(F)(F)C(F)(F)C(F)(F)C(F)(F)C(F)(F)C(F)(F)C(F)(F)C(F)(F)F [3-(Perfluorooctyl)propanol]
- Hep_Stab_Fail [1]: 1
- fraction unbound (in vitro; [4]): 0.0277
- fraction unbound (in vitro; [5]): 0.036
- fraction unbound (in vitro; [6]): 0.0357
- Stability (T5hr/ T1hr), Run-specific Avg (human plasma [2]; [7]): 0.894
- PPB_Stab_Fail (human plasma [2]): 0
- Mean Stability (human plasma [2]; [8]): 0.893
- Fstable.Med (human plasma [2]): 0.272
- Stability (T5hr/ T1hr), replicates A, B, C (human plasma [2]): 0.9156 and 0.9452 and 0.8196
- Fup.Med (human plasma [3]): 0.0348
- Fup.point (human plasma [3]): 0.0352
- Fraction Unbound (fu), replicates A, B, C (human plasma [3]): 0.03475 and 0.04477

SMILES: O=C(CC(=O)C(F)(F)C(F)(F)C(F)(F)F)c1cccs1 [(Perfluorobutyryl)-2-thenoylmethane]
- Hep_Stab_Fail [1]: Fst
- fraction unbound (in vitro; [9]): 0.00714
- fraction unbound (in vitro; [4]): 0.00885
- fraction unbound (in vitro; [5]): 0.007
- fraction unbound (in vitro; [6]): 0.006
- Stability (T5hr/ T1hr), Run-specific Avg (human plasma [2]; [7]): 1.277
- % remaining_PPB (human plasma [2]): 100%
- PPB_Stab_Fail (human plasma [2]): 0
- Mean Stability (human plasma [2]; [8]): 1.278
- Fstable.Med (human plasma [2]): 0.959
- Stability (T5hr/ T1hr), replicates A, B, C (human plasma [2]): 1.693 and 1.2724 and 0.868
- Fup.Med (human plasma [3]): 0.00944
- Fup.point (human plasma [3]): 0.00576
- Fraction Unbound (fu), replicates A, B, C (human plasma [3]): 0.006374 and 0.006195

SMILES: C=C(C)C(=O)OCCC(F)(F)C(F)(F)C(F)(F)C(F)(F)C(F)(C(F)(F)F)C(F)(F)F [(Perfluoro-5-methylhexyl)ethyl 2-methylprop-2-enoate]
- Hep_Stab_Fail [1]: 1
- fraction unbound (in vitro; [6]): 0.0603
- % remaining_PPB (human plasma [2]): 63.6%
- Fstable.Med (human plasma [2]): 0.43
- Fup.Med (human plasma [3]): 4.30E-06
- Fup.point (human plasma [3]): 0.0603

SMILES: FC(F)(Br)C(F)(F)C(F)(F)C(F)(F)C(F)(F)C(F)(F)Br [1,6-Dibromododecafluorohexane]
- Hep_Stab_Fail [1]: 1
- fraction unbound (in vitro; [10]): 0.00422
- fraction unbound (in vitro; [11]): 0.00424
- fraction unbound (in vitro; [12]): 0.00422
- fraction unbound (in vitro; [6]): 0.004
- Time 1 hr (human plasma [2]): 8781.60 and 9238.06 and 11600.01
- Time 1 hr, Run-specific Avg (human plasma [2]): 9873.23
- Time 5 hr (human plasma [2]): 4002.39 and 3732.26 and 4390.36
- Time 5 hr, Run-specific Avg (human plasma [2]): 3867.32
- Stability (T5hr/ T1hr), Run-specific Avg (human plasma [2]; average of one UC run): 0.392
- % remaining_PPB (human plasma [2]): 40%
- PPB_Stab_Fail (human plasma [2]): 0
- Mean Stability (human plasma [2]; [13]): 0.415
- Fstable.Med (human plasma [2]): 0.312
- Aqueous Fraction (human plasma [3]): 16.97
- Aqueous Fraction, Run-specific Avg (human plasma [3]): 16.97
- fup (human plasma [3]; human plasma, 10 μM, ultracentrifugation, 37 °C): 0.004
- Fup.Med (human plasma [3]): 1.78E-09
- Fup.point (human plasma [3]): 0

SMILES: OCCCC(F)(F)C(F)(F)C(F)(F)F [3-(Perfluoropropyl)propanol]
- Hep_Stab_Fail [1]: 1
- fraction unbound (in vitro; [9]): 0.2
- fraction unbound (in vitro; [4]): 0.179
- fraction unbound (in vitro; [5]): 0.203
- fraction unbound (in vitro; [6]): 0.203
- Stability (T5hr/ T1hr), Run-specific Avg (human plasma [2]; [7]): 0.890
- PPB_Stab_Fail (human plasma [2]): 0
- Mean Stability (human plasma [2]; [8]): 0.892
- Fstable.Med (human plasma [2]): 0.2
- Stability (T5hr/ T1hr), replicates A, B, C (human plasma [2]): 0.858 and 0.887 and 0.929
- Fup.Med (human plasma [3]): 0.202
- Fup.point (human plasma [3]): 0.205
- Fraction Unbound (fu), replicates A, B, C (human plasma [3]): 0.224 and 0.207

SMILES: OCC(F)(F)C(F)(F)C(F)(F)CO [Hexafluoroamylene]
- fraction unbound (in vitro; [10]): 0.06
- fraction unbound (in vitro; [11]): 0.0437
- fraction unbound (in vitro; [12]): 0.06
- Time 1 hr (human plasma [2]): 5856.63 and 5544.86 and 5920.14
- Time 1 hr, Run-specific Avg (human plasma [2]): 5773.88
- Time 5 hr (human plasma [2]): 3672.88 and 3626.61 and 3711.47
- Time 5 hr, Run-specific Avg (human plasma [2]): 3649.75
- Stability (T5hr/ T1hr), Run-specific Avg (human plasma [2]; average of one UC run): 0.632
- Mean Stability (human plasma [2]; [13]): 0.636
- Fstable.Med (human plasma [2]): 0.988
- Aqueous Fraction (human plasma [3]): 160.563 and 273.771 and 229.145
- Aqueous Fraction, Run-specific Avg (human plasma [3]): 221.16
- Fup.Med (human plasma [3]): 0.627
- Fup.point (human plasma [3]): 0.675

SMILES: OCC(F)(F)C(F)(F)C(F)(F)C(F)F [1H,1H,5H-Perfluoropentanol]
- Hep_Stab_Fail [1]: 1
- Stability (T5hr/ T1hr), Run-specific Avg (human plasma [2]; [7]): 0.858
- PPB_Stab_Fail (human plasma [2]): 0
- Mean Stability (human plasma [2]; [8]): 0.855
- Fstable.Med (human plasma [2]): 1
- Stability (T5hr/ T1hr), replicates A, B, C (human plasma [2]): 0.775 and 0.902 and 0.887
- Fraction Unbound (fu), Run-specific Avg (human plasma [3]; [7]): 0.36
- Mean fu (human plasma [3]; ultracentrifugation): 0.3616
- Mean Fu (human plasma [3]; mean fraction unbound over all replicates and runs, UC assay, human plasma): 0.362
- Fup.Med (human plasma [3]): 0.791
- Fup.point (human plasma [3]): 0.355
- Fraction Unbound (fu), replicates A, B, C (human plasma [3]): 0.445 and 0.315 and 0.324

SMILES: OCC(F)(F)C(F)(F)C(F)(F)C(F)(F)C(F)(F)C(F)(F)F [6:1 Fluorotelomer alcohol]
- Hep_Stab_Fail [1]: 1
- Time 1 hr (human plasma [2]): 10923.7 and 9182.55 and 11162.4
- Time 1 hr, Run-specific Avg (human plasma [2]): 10422.90
- Time 5 hr (human plasma [2]): 5789.66 and 11336.8 and 10690.6
- Time 5 hr, Run-specific Avg (human plasma [2]): 8563.21
- Stability (T5hr/ T1hr), Run-specific Avg (human plasma [2]; average of one UC run): 0.822
- PPB_Stab_Fail (human plasma [2]): 0
- Mean Stability (human plasma [2]; [13]): 0.907
- Fstable.Med (human plasma [2]): 0.204
- Aqueous Fraction (human plasma [3]): 212.981 and 210.941 and 147.734
- Aqueous Fraction, Run-specific Avg (human plasma [3]): 190.55
- Fraction Unbound (fu), Run-specific Avg (human plasma [3]; average of one UC run): 0.0231
- Fup.Med (human plasma [3]): 0.0187
- Fup.point (human plasma [3]): 0.0386

SMILES: NC(=O)C(F)(F)C(F)(F)C(F)(F)C(F)(F)C(F)(F)C(F)(F)C(F)(F)F [Perfluorooctanamide]
- Hep_Stab_Fail [1]: 1
- PPB_Stab_Fail (human plasma [2]): 0
- Mean Stability (T5hr/T1hr) (human plasma [2]; [14]): 0.838
- Fstable.Med (human plasma [2]): 0.738
- Stability (T5hr/ T1hr), Run-specific Avg (human plasma [2]; run-specific average): 0.841
- Mean fu (human plasma [3]; ultracentrifugation): 0.0282
- Mean Fu (fraction unbound) (human plasma [3]; [14]): 0.028
- Fup.Med (human plasma [3]): 0.0252
- Fup.point (human plasma [3]): 0.0263
- Fraction Unbound (fu), Run-specific Avg (human plasma [3]; run-specific average): 0.0266
